Laboratory results as given in PubChem BioAssay AID2060491 (Molecular Pharmacology Branch, DTP, NCI, 2025).

Test system: 857933-349-R-J2-PDC complex spheroids, viability
Assay: Anticancer human tumor 857933-349-R-J2-PDC patient-derived colon adenocarcinoma cell line growth inhibition [GQUAD]
Settings: for IC50: curve of first compound; for viability, T/C: stronger effect = lower value
In short: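 Tumor cells were grown as complex spheroids with HUVEC endothelial cells and mesenchymal stem cells as stroma. G-quadruplex stabilizers were combined with targeted agents over half-log dilutions from near the clinical Cmax, or from 10 microM.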

[1] = second compound 0.0316 µM, first compound 0.0316 µM
[2] = second compound 0.0316 µM, first compound 0.1 µM
[3] = second compound 0.0316 µM, first compound 0.316 µM
[4] = second compound 0.0316 µM, first compound 1 µM
[5] = second compound 0.0316 µM, first compound 3.16 µM
[6] = second compound 0.0316 µM, first compound 10 µM
[7] = second compound 0.1 µM, first compound 0.0316 µM
[8] = second compound 0.1 µM, first compound 0.1 µM
[9] = second compound 0.1 µM, first compound 0.316 µM
[10] = second compound 0.1 µM, first compound 1 µM
[11] = second compound 0.1 µM, first compound 3.16 µM
[12] = second compound 0.1 µM, first compound 10 µM
[13] = second compound 0.316 µM, first compound 0.0316 µM
[14] = second compound 0.316 µM, first compound 0.1 µM
[15] = second compound 0.316 µM, first compound 0.316 µM
[16] = second compound 0.316 µM, first compound 1 µM
[17] = second compound 0.316 µM, first compound 3.16 µM
[18] = second compound 0.316 µM, first compound 10 µM
[19] = second compound 1 µM, first compound 0.0316 µM
[20] = second compound 1 µM, first compound 0.1 µM
[21] = second compound 1 µM, first compound 0.316 µM
[22] = second compound 1 µM, first compound 1 µM
[23] = second compound 1 µM, first compound 3.16 µM
[24] = second compound 1 µM, first compound 10 µM
[25] = second compound 3.16 µM, first compound 0.0316 µM
[26] = second compound 3.16 µM, first compound 0.1 µM
[27] = second compound 3.16 µM, first compound 0.316 µM
[28] = second compound 3.16 µM, first compound 1 µM
[29] = second compound 3.16 µM, first compound 3.16 µM
[30] = second compound 3.16 µM, first compound 10 µM
[31] = second compound 10 µM, first compound 0.0316 µM
[32] = second compound 10 µM, first compound 0.1 µM
[33] = second compound 10 µM, first compound 0.316 µM
[34] = second compound 10 µM, first compound 1 µM
[35] = second compound 10 µM, first compound 3.16 µM
[36] = second compound 10 µM, first compound 10 µM
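Further: spheroids exposed to compounds for one week before readout.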
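Wherever viability, T/C is given: percent viability relative to vehicle DMSO wells taken as 100%.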

CC(=O)O[C@H]1C(=O)[C@@]2(C)[C@H]([C@H](OC(=O)c3ccccc3)[C@]3(O)C[C@H](OC(=O)[C@H](O)[C@@H](NC(=O)c4ccccc4)c4ccccc4)C(C)=C1C3(C)C)[C@]1(OC(C)=O)CO[C@@H]1C[C@@H]2O + CN(C)c1ccc(Nc2c3ccc(NC(=O)CCN4CCCC4)cc3nc3cc(NC(=O)CCN4CCCC4)ccc23)cc1
IC50 (second compound 0.0316 µM): 0.0663 µM
IC50 (second compound 0.1 µM): 0.0627 µM
IC50 (second compound 0.316 µM): 0.0621 µM
IC50 (second compound 1 µM): 0.0602 µM
IC50 (second compound 3.16 µM): 0.0551 µM
IC50 (second compound 10 µM): < 0.0316 µM
viability, T/C [1]: 75%
viability, T/C [2]: 36%
viability, T/C [3]: 22.3%
viability, T/C [4]: 23.4%
viability, T/C [5]: 23.6%
viability, T/C [6]: 27.1%
viability, T/C [7]: 75.5%
viability, T/C [8]: 33.7%
viability, T/C [9]: 22.2%
viability, T/C [10]: 23%
viability, T/C [11]: 22.6%
viability, T/C [12]: 26.4%
viability, T/C [13]: 70.9%
viability, T/C [14]: 35.2%
viability, T/C [15]: 19.6%
viability, T/C [16]: 20.5%
viability, T/C [17]: 24%
viability, T/C [18]: 27.2%
viability, T/C [19]: 71.6%
viability, T/C [20]: 33%
viability, T/C [21]: 22.1%
viability, T/C [22]: 21.3%
viability, T/C [23]: 26.2%
viability, T/C [24]: 26.8%
viability, T/C [25]: 67.4%
viability, T/C [26]: 31.6%
viability, T/C [27]: 26%
viability, T/C [28]: 24.5%
viability, T/C [29]: 27.2%
viability, T/C [30]: 30.9%
viability, T/C [31]: 54.9%
viability, T/C [32]: 43.9%
viability, T/C [33]: 38.6%
viability, T/C [34]: 33.4%
viability, T/C [35]: 34.3%
viability, T/C [36]: 41.4%

CC1COCCN1c1cc(C2(O)CC3CCC(C2)O3)c2cnn(-c3ccn[nH]3)c2n1 (stereo not drawn) + Cc1[nH]c2ccc(F)cc2c1-c1nc2c3cccnc3c3ncccc3c2[nH]1
IC50 (second compound 0.0316 µM): 0.289 µM
IC50 (second compound 0.1 µM): 0.273 µM
IC50 (second compound 0.316 µM): 0.44 µM
IC50 (second compound 1 µM): 0.312 µM
IC50 (second compound 3.16 µM): 0.699 µM
IC50 (second compound 10 µM): 0.267 µM
viability, T/C [1]: 76.9%
viability, T/C [2]: 64.5%
viability, T/C [3]: 49.6%
viability, T/C [4]: 41.2%
viability, T/C [5]: 47.2%
viability, T/C [6]: 42.5%
viability, T/C [7]: 69.5%
viability, T/C [8]: 61.1%
viability, T/C [9]: 44.6%
viability, T/C [10]: 47.3%
viability, T/C [11]: 50.3%
viability, T/C [12]: 51.4%
viability, T/C [13]: 67.8%
viability, T/C [14]: 65.5%
viability, T/C [15]: 52.7%
viability, T/C [16]: 42.3%
viability, T/C [17]: 45.8%
viability, T/C [18]: 42.9%
viability, T/C [19]: 58.2%
viability, T/C [20]: 59.8%
viability, T/C [21]: 46.5%
viability, T/C [22]: 44.6%
viability, T/C [23]: 46.4%
viability, T/C [24]: 47.2%
viability, T/C [25]: 64.9%
viability, T/C [26]: 59.6%
viability, T/C [27]: 52.4%
viability, T/C [28]: 46.2%
viability, T/C [29]: 48.4%
viability, T/C [30]: 45.5%
viability, T/C [31]: 77.4%
viability, T/C [32]: 61.2%
viability, T/C [33]: 49%
viability, T/C [34]: 42.4%
viability, T/C [35]: 42%
viability, T/C [36]: 46.7%

O=c1[nH]cc(F)c(=O)[nH]1 + Cc1cnc(CNC(=O)c2c(=O)c3ccc(N4CCCN(C)CC4)nc3n3c2sc2ccccc23)cn1
IC50 (second compound 0.0316 µM): 1.5 µM
IC50 (second compound 0.1 µM): 0.859 µM
IC50 (second compound 0.316 µM): < 0.0316 µM
IC50 (second compound 1 µM): < 0.0316 µM
IC50 (second compound 3.16 µM): < 0.0316 µM
IC50 (second compound 10 µM): < 0.0316 µM
viability, T/C [1]: 95%
viability, T/C [2]: 95.9%
viability, T/C [3]: 87.3%
viability, T/C [4]: 60.8%
viability, T/C [5]: 30%
viability, T/C [6]: 18.9%
viability, T/C [7]: 72.2%
viability, T/C [8]: 84.7%
viability, T/C [9]: 64.8%
viability, T/C [10]: 47%
viability, T/C [11]: 26.3%
viability, T/C [12]: 13.6%
viability, T/C [13]: 25.4%
viability, T/C [14]: 29.3%
viability, T/C [15]: 22.8%
viability, T/C [16]: 15.7%
viability, T/C [17]: 11%
viability, T/C [18]: 5.17%
viability, T/C [19]: 5.21%
viability, T/C [20]: 5.61%
viability, T/C [21]: 4.05%
viability, T/C [22]: 4.64%
viability, T/C [23]: 4.34%
viability, T/C [24]: 3.5%
viability, T/C [25]: 2.29%
viability, T/C [26]: 3.17%
viability, T/C [27]: 3.1%
viability, T/C [28]: 2.6%
viability, T/C [29]: 3.16%
viability, T/C [30]: 3.13%
viability, T/C [31]: 1.93%
viability, T/C [32]: 2.51%
viability, T/C [33]: 2.25%
viability, T/C [34]: 1.52%
viability, T/C [35]: 2.21%
viability, T/C [36]: 1.32%

O=C(NO)c1cnc(N2CCN(S(=O)(=O)c3ccc4ccccc4c3)CC2)nc1 + CN(C)c1ccc(Nc2c3ccc(NC(=O)CCN4CCCC4)cc3nc3cc(NC(=O)CCN4CCCC4)ccc23)cc1
IC50 (second compound 0.0316 µM): 1.48 µM
IC50 (second compound 0.1 µM): 1.51 µM
IC50 (second compound 0.316 µM): 1.31 µM
IC50 (second compound 1 µM): 1.23 µM
IC50 (second compound 3.16 µM): 1.13 µM
IC50 (second compound 10 µM): 0.658 µM
viability, T/C [1]: 106%
viability, T/C [2]: 100%
viability, T/C [3]: 101%
viability, T/C [4]: 75.1%
viability, T/C [5]: 0.74%
viability, T/C [6]: 0.27%
viability, T/C [7]: 101%
viability, T/C [8]: 99.3%
viability, T/C [9]: 93.8%
viability, T/C [10]: 77.1%
viability, T/C [11]: 0.65%
viability, T/C [12]: 0.57%
viability, T/C [13]: 101%
viability, T/C [14]: 100%
viability, T/C [15]: 93%
viability, T/C [16]: 64.9%
viability, T/C [17]: 1.11%
viability, T/C [18]: 0.38%
viability, T/C [19]: 97.2%
viability, T/C [20]: 97%
viability, T/C [21]: 92.9%
viability, T/C [22]: 60.7%
viability, T/C [23]: 0.83%
viability, T/C [24]: 0.36%
viability, T/C [25]: 89%
viability, T/C [26]: 80.1%
viability, T/C [27]: 92.4%
viability, T/C [28]: 55.7%
viability, T/C [29]: 1%
viability, T/C [30]: 0.3%
viability, T/C [31]: 66.2%
viability, T/C [32]: 68.2%
viability, T/C [33]: 68.5%
viability, T/C [34]: 40%
viability, T/C [35]: 0.55%
viability, T/C [36]: 0.71%
